Data as given in PMC3206016, “Putting into Practice Domain-Linear Motif Interaction Predictions for Exploration of Protein Networks” (PLoS ONE, 2011).
“And” between values parts separate entries of the source, which are not always exact repeats. Equal entries are not always repeated. Where two headings read alike, the source gives them in different places. Each block holds one molecule with its values, some of them ahead of it. Ends that are not written are not given here. Peptide text beside a SMILES is read from it. * marks the point of attachment. Biotin = O=C1N[C@H]2[C@H](CS[C@H]2CCCCC(=O)*)N1

Legend:
Assay in all cases: SPR binding of MBP-PDZ analyte to immobilised biotinylated peptides
MAGI1-2/6 PDZ domain = target: T1, MAGI1-2/6 PDZ domain (Mus musculus, UniProt Q6RHR9); details: for norm. RU at 10 µM: SPR Req at 10 µM MBP-PDZ, normalised for analyte molecular weight and immobilised ligand
T1 construct: The cDNA encoding residues 448–572 and 613–752 of mouse MAGI-1 (UniProt acc.: Q6RHR9-1) encoding for MAGI1-2/6; made in house; host or cells: E. coli BL21 DE3
T1 sequence (Q6RHR9 448-572): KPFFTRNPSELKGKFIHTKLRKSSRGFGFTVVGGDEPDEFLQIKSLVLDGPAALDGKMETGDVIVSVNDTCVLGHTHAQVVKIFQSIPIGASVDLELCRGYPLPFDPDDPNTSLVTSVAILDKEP
Method: (§1) We opted for the surface plasmon resonance (SPR) method to measure these 190 (19 proteins×2 peptide versions×5 PDZ constructs) interactions. In SPR various concentrations of “analytes” (here, PDZ domains fused to the Maltose Binding Protein (MBP)) flow over surfaces presenting attached “ligands” (here, biotinylated peptides). The amount of analyte interacting with the ligand is measured and quantified in response units (RU). The intensity of this signal is proportional to the binding strength of the assayed interaction (Figure 5A). K [drawing 13] were obtained using a 1∶1 interaction model. However, these calculated K [drawing 14] were rather inaccurate especially for weak interactions. Therefore, we preferred to rank the binding strengths of the 190 interactions using normalised RU signals at equilibrium ( [drawing 15] ) rather than K [drawing 16] (see Methods for details). These normalised [drawing 17] values were plotted in form of a heat map (Figure 5B).
(§2) The cDNA encoding residues 448–572 and 613–752 of mouse MAGI-1 (UniProt acc.: Q6RHR9-1) encoding for MAGI1-2/6 (100% identical to human MAGI1-2/6) and MAGI1-3/6 (99% identical to human MAGI1-3/6) PDZ domains, respectively, were inserted into the NcoI/KpnI sites of the pETM-41 expression vector (EMBL) containing a 6×His-MBP tag followed by a TEV protease cleavage site. A similar cloning strategy was adopted for cDNA bearing residues 997–1093, 1097–1193 and 997–1193 of human SCRIB (Uniprot acc.: Q14160-1) encoding for SCRIB-3/4, SCRIB-4/4 PDZ domains and SCRIB-34/4 tandem PDZ construct, respectively.
(§3) Data were collected on a Biacore 2000 instrument (Biacore AB/GE Healthcare Bio-Sciences Corp., Piscataway, NJ, USA) at 25 [drawing 74] C. SPR experiments (ligand immobilisation and binding measurements) have been performed as described in Fournane et al.. Briefly, biotinylated peptides (instead of GST-fused recombinant peptides) were immobilised on CM5 sensorchips on which Neutravidin was previously attached. The MBP-PDZ domain analyte was injected at 8 to 10 different concentrations ranging from 0 up to 30 [drawing 75] M. Data were processed using the BiaEvaluation 3.2 software (Biacore AB/GE Healthcare Bio-Sciences Corp.) using “double referencing” [78] in which sensorgrams were corrected for buffer effects and bulk refractive index changes.
(§4) The steady-state binding signal ( [drawing 76] ) was derived by averaging the signals in a five second window at equilibrium. Steady-state analysis was performed by fitting the average signal [drawing 77] as a function of total MBP-PDZ concentrations, assuming a simple 1∶1 interaction binding isotherm model. […] Reasons for this inaccuracy are likely to be the following: 1. As previously described, several repetitions of all the measurements are required to determine accurate K [drawing 81] . In our case, such repetitions were not achievable in reasonable time due to the large amount of interactions measured in this study. 2. The highest injected analyte concentration restricts the maximal K [drawing 82] (weakest interaction) that can be accurately obtained. 3. A K [drawing 83] is estimated based on a mathematical extrapolation of observed [drawing 84] signals leading to additional uncertainty. Based on these reasons, we considered the calculated K [drawing 85] not as accurate enough to be used for absolute binding strength comparison in this study. We rather performed a relative analysis of binding strengths using directly [drawing 86] signals which are not biased by any mathematical assumption. We focussed on [drawing 87] signals obtained at 10 [drawing 88] M MBP-PDZ concentration, which have been systematically measured in duplicate. The [drawing 89] signal is directly proportional to the molecular weight of the analyte and the amount of immobilised ligand. Therefore, the [drawing 90] signals were normalised taking those into account before being used for binding strength comparison. […]

[1] = target: T2, SCRIB-34/4 tandem PDZ construct (Homo sapiens, UniProt Q14160); details: for Kd: SPR Biacore 2000, 25 C, steady state, 1:1 binding isotherm, MBP-PDZ 0-30 µM, to be considered with caution; for norm. RU at 10 µM: SPR Req at 10 µM MBP-PDZ, normalised for analyte molecular weight and immobilised ligand
T2 construct: residues 997–1093, 1097–1193 and 997–1193 of human SCRIB (Uniprot acc.: Q14160-1); made in house; host or cells: E. coli BL21 DE3
T2 sequence (Q14160 997-1193 isoform Q14160-1): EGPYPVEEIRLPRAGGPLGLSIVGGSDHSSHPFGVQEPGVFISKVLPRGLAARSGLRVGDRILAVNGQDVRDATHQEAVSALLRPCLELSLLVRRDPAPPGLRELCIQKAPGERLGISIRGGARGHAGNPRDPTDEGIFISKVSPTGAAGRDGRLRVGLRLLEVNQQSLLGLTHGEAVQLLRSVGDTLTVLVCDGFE
Method: as §1, §2, §3, §4

SCRIB-3/4 PDZ domain = target: T3, SCRIB-3/4 PDZ domain (Homo sapiens, UniProt Q14160); details: for Kd: SPR Biacore 2000, 25 C, steady state, 1:1 binding isotherm, MBP-PDZ 0-30 µM, to be considered with caution; for norm. RU at 10 µM: SPR Req at 10 µM MBP-PDZ, normalised for analyte molecular weight and immobilised ligand
T3 construct: cDNA bearing residues 997–1093, 1097–1193 and 997–1193 of human SCRIB (Uniprot acc.: Q14160-1); made in house; host or cells: E. coli BL21 DE3
T3 sequence (Q14160 997-1093 isoform Q14160-1): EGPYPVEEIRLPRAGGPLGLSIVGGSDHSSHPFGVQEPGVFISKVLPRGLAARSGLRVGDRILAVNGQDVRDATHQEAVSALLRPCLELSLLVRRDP
Method: as §1, §2, §3, §4

MAGI1-3/6 PDZ domain = target: T4, MAGI1-3/6 PDZ domain (Mus musculus, UniProt Q6RHR9); details: for norm. RU at 10 µM: SPR Req at 10 µM MBP-PDZ, normalised for analyte molecular weight and immobilised ligand; for Kd: SPR Biacore 2000, 25 C, steady state, 1:1 binding isotherm, MBP-PDZ 0-30 µM, to be considered with caution
T4 construct: The cDNA encoding residues 448–572 and 613–752 of mouse MAGI-1 (UniProt acc.: Q6RHR9-1); made in house; host or cells: E. coli BL21 DE3
T4 sequence (Q6RHR9 613-752): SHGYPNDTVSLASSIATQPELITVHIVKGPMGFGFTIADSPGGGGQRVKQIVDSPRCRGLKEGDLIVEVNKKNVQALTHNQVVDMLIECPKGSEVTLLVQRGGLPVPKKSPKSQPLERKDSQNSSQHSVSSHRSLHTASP
Method: as §1, §2, §3, §4

SCRIB-4/4 PDZ domain = target: T5, SCRIB-4/4 PDZ domain (Homo sapiens, UniProt Q14160); details: for norm. RU at 10 µM: SPR Req at 10 µM MBP-PDZ, normalised for analyte molecular weight and immobilised ligand; for Kd: tentative KD, SPR Biacore 2000, 25 C, steady state, 1:1 binding isotherm, MBP-PDZ 0-30 µM, to be considered with caution
T5 construct: residues 997–1093, 1097–1193 and 997–1193 of human SCRIB (Uniprot acc.: Q14160-1); made in house; host or cells: E. coli BL21 DE3
T5 sequence (Q14160 1097-1193 isoform Q14160-1): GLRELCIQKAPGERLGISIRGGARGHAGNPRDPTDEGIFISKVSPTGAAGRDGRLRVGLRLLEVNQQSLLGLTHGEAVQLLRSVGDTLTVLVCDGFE
Method: as §1, §2, §3, §4

[2] = tentative KD, SPR Biacore 2000, 25 C, steady state, 1:1 binding isotherm, MBP-PDZ 0-30 µM, to be considered with caution

Molecule: CC(C)C[C@H](NC(=O)[C@H](CCC(N)=O)NC(=O)[C@@H](NC(=O)[C@H](CCC(=O)O)NC(=O)[C@H](CCCNC(=N)N)NC(=O)[C@H](CCCNC(=N)N)NC(=O)[C@@H](NC(=O)[C@H](CCCNC(=N)N)NC(=O)[C@H](CO)NC(=O)[C@@H](N)CO)[C@@H](C)O)[C@@H](C)O)C(=O)O [16E6]
Kd (MAGI1-2/6 PDZ domain; this study (Kd), Table S3, column this study, SPR): 3 µM | Kd ([1]; tentative KD): 3 µM | Kd (SCRIB-3/4 PDZ domain; tentative KD): 18 µM and 15 µM

Molecule: CC(C)C[C@H](NC(=O)[C@H](CCC(N)=O)NC(=O)[C@@H](NC(=O)[C@H](CCC(=O)O)NC(=O)[C@H](CCCNC(=N)N)NC(=O)CNC(=O)[C@H](C)NC(=O)CNC(=O)[C@H](CO)NC(=O)CNC(=O)CCCC[C@@H]1SC[C@@H]2NC(=O)N[C@@H]21)[C@@H](C)O)C(=O)O [16E6_05] (Biotin-GSGAGRETQL-OH)
Kd (MAGI1-2/6 PDZ domain; [2]): 7 µM | Kd ([1]; tentative KD): 1 µM | Kd (SCRIB-3/4 PDZ domain; tentative KD): 12 µM

norm. RU at 10 µM (MAGI1-3/6 PDZ domain): 0.0 RU | norm. RU at 10 µM (MAGI1-2/6 PDZ domain): 0.0 RU | norm. RU at 10 µM (SCRIB-4/4 PDZ domain): 0.0 RU | norm. RU at 10 µM [1]: 70.8 RU | norm. RU at 10 µM (SCRIB-3/4 PDZ domain): 57.5 RU
Molecule: C[C@H](NC(=O)[C@@H](NC(=O)CCCC[C@@H]1SC[C@@H]2NC(=O)N[C@@H]21)[C@@H](C)O)C(=O)N[C@@H](CO)C(=O)N1CCC[C@H]1C(=O)N[C@@H](C)C(=O)N[C@@H](CCCCN)C(=O)N[C@@H](CCC(=O)O)C(=O)N[C@H](C(=O)N[C@@H](CO)C(=O)N[C@@H](Cc1ccccc1)C(=O)O)[C@@H](C)O [GLUT7_10] (Biotin-TASPAKETSF-OH)

norm. RU at 10 µM (MAGI1-3/6 PDZ domain): 10.9 RU | norm. RU at 10 µM (MAGI1-2/6 PDZ domain): 54.7 RU | norm. RU at 10 µM (SCRIB-4/4 PDZ domain): 0.0 RU | norm. RU at 10 µM [1]: 88.1 RU | norm. RU at 10 µM (SCRIB-3/4 PDZ domain): 22.7 RU
Molecule: CC(C)[C@H](NC(=O)[C@@H](NC(=O)[C@@H](NC(=O)[C@H](CCC(=O)O)NC(=O)[C@H](CCCCN)NC(=O)[C@H](CO)NC(=O)[C@H](CC(N)=O)NC(=O)[C@H](CCCNC(=N)N)NC(=O)[C@H](CCCCN)NC(=O)[C@@H](NC(=O)CCCC[C@@H]1SC[C@@H]2NC(=O)N[C@@H]21)C(C)C)[C@@H](C)O)C(C)C)C(=O)O [MARCH3_10] (Biotin-VKRNSKETVV-OH)

Kd (MAGI1-3/6 PDZ domain; read-out: tentative KD): 23 µM | Kd ([1]; read-out: tentative KD): 15 µM
Molecule: CC(C)C[C@H](NC(=O)[C@@H](NC(=O)[C@H](CCC(=O)O)NC(=O)[C@H](CCCCN)NC(=O)CNC(=O)[C@H](C)NC(=O)CNC(=O)[C@H](CO)NC(=O)CNC(=O)CCCC[C@@H]1SC[C@@H]2NC(=O)N[C@@H]21)[C@@H](C)O)C(=O)N[C@H](C(=O)O)C(C)C [NET1_05] (Biotin-GSGAGKETLV-OH)

Molecule: CC(C)[C@H](NC(=O)[C@H](CCC(=O)O)NC(=O)[C@@H](NC(=O)[C@H](CCC(=O)O)NC(=O)[C@H](CCCNC(=N)N)NC(=O)CNC(=O)[C@H](C)NC(=O)CNC(=O)[C@H](CO)NC(=O)CNC(=O)CCCC[C@@H]1SC[C@@H]2NC(=O)N[C@@H]21)[C@@H](C)O)C(=O)O [TAX1_05] (Biotin-GSGAGRETEV-OH)
Kd (MAGI1-3/6 PDZ domain; tentative KD): 75 µM | Kd (MAGI1-2/6 PDZ domain; [2]): 33 µM | Kd (SCRIB-4/4 PDZ domain): 50 µM | Kd ([1]; tentative KD): 1 µM | Kd (SCRIB-3/4 PDZ domain; tentative KD): 96 µM

norm. RU at 10 µM (MAGI1-3/6 PDZ domain): 0.0 RU | norm. RU at 10 µM (MAGI1-2/6 PDZ domain): 0.0 RU | norm. RU at 10 µM (SCRIB-4/4 PDZ domain): 0.0 RU | norm. RU at 10 µM [1]: 0.0 RU | norm. RU at 10 µM (SCRIB-3/4 PDZ domain): 0.0 RU
Molecule: EKPIDSETKM [GLAST_10, long peptide: last ten wild type C-terminal residues of Excitatory amino acid transporter 1, biotinylated]

Kd (SCRIB-3/4 PDZ domain; read-out: tentative KD): 88 µM
Molecule: GGWVEKETYY [ATP1A1_10]

Kd (MAGI1-3/6 PDZ domain; read-out: tentative KD): 37 µM
Molecule: PMESGICTIV [TTC24_10]

Molecule: RSSRTRRETQV [16E6L/V, reference compound]
Kd (MAGI1-3/6 PDZ domain; tentative KD): 69 µM and 76 µM and 202 µM | Kd (SCRIB-4/4 PDZ domain): 47 µM and 55 µM | Kd ([1]; tentative KD): 3 µM and 4 µM | Kd (SCRIB-3/4 PDZ domain; tentative KD): 18 µM and 41 µM and 32 µM

Kd (MAGI1-3/6 PDZ domain; read-out: tentative KD): 37 µM | Kd (MAGI1-2/6 PDZ domain; Table S3, column this study, SPR, read-out: this study (Kd)): 3 µM
Molecule: SGGKRKETLV [NET1_10]

Kd ([1]; read-out: tentative KD): 5 µM | Kd (SCRIB-3/4 PDZ domain; read-out: tentative KD): 12 µM
Molecule: VMRLQSETSV [VANG2_10]
